Experimental data reported in patent US9126968B2, “Quinic acid derivative, process for preparation and uses thereof” (NATIONAL APPLIED RESEARCH LABORATORIES, priority 2013, dated 2015).
Values after ≈ are worked out from the molar mass of the structure shown. “Also recorded” adds a separate entry of the source.

Legend:
[1] = system: IL-2 expressed from signal 2 pathway of T-cells; test: in vitro IC50 measurement (reduction of IL-2); format: cell-based; conditions: T-cell; dosage causing 50% reduction of IL-2; FIG. 8; read-out: IC50 on blocking T-cell immune response
From the text: The IC50 represents the dosage which causes 50% reduction of IL-2 expressed from signal 2 pathway of T-cells.

[2] = biological target: CD28 of T-cells and CD80 of B-cells (Homo sapiens, UniProt P10747); test: unbinding force test; format: binding; conditions: in the presence of Cyn-1324; about 41.9 pN in its absence; FIG. 7
Sequence of CD28 of T-cells and CD80 of B-cells (P10747 19-220): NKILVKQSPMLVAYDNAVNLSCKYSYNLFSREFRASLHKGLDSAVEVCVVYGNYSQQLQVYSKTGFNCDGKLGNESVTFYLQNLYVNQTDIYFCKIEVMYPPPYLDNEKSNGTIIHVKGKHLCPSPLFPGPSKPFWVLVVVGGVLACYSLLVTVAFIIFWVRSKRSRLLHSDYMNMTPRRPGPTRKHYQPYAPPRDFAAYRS
From the text: In the absence of Cyn-1324, the average unbinding force is about 41.9 pN. Conversely, in the presence of Cyn-1324, the average unbinding force is reduced to about 29.1 pN. The results shown in FIG. 7 provide the physical evidence that Cyn-1324 repulses the binding between CD28 and CD80, thus blocking the signal 2 pathway induced by the interaction of CD28 and co-stimulatory molecules such as CD80 or CD86.

[3] = system: OVA-sensitized mice; conditions: mouse, in vivo
[4] = single dose toxicity test; conditions: mouse, in vivo, mice, read-out: maximum tolerance dose (MTD)
[5] = system: T-cells; test: in vitro efficacy test: production of IL-2 from T-cells; format: cell-based; conditions: compared with cynarin; FIG. 6
From the text: The production of IL-2 is reduced when the activation of T-cells is interfered.

[6] = mouse, in vivo
Protocol: One of the four mice groups is treated with PBS, and three of the four groups are sensitized with OVA.

[7] = system: T-cells; test: in vitro cytotoxicity test (MTT assay); format: cell-based; conditions: compared with cynarin, FIG. 5
Protocol: The amount of survival T-cells is measured by MTT assay. […] Conversely, they are less cytotoxic than cynarin.

[8] = system: OVA-sensitized mice; test: in vivo animal test of immuno-suppressive effect (serum antibodies via ELISA); conditions: OVA-sensitized BALB/c mice, serum on 14th day, FIG. 9
Protocol: The four BALB/c mice groups are treated with phosphate-buffered saline (PBS), ovalbulmin (OVA), OVA/Cyn-1324 or OVA/cyclosporin A (CSA), respectively. CSA is used currently in clinics for suppressing immune response. The 14th-day from the treatments, the serum is collected, and the antibodies such as IgG and IgE are analyzed via ELISA. […] Accordingly, Cyn-1324 is effective for suppressing immune response.

For `CC(C)CNC(=O)[C@@]1(O)C[C@@H](O)[C@@H]2OC3(CCCCC3)O[C@@H]2C1` [Cyn-1324, (3aR,5R,7R,7aS)-5,7-dihydroxy-N-(2-methylpropyl)hexahydrospiro[1,3-benzodioxole-2,1′-cyclohexane]-5-carboxamide], the IC50 [1] was roughly 20 µg/mL (≈ 61.1 µM), the average unbinding force [2] was “about 29.1 pN” and the “side effect: body swollen” value [3] was “does not cause the similar side effect”. For the same compound, the MTD [4] was roughly 400 mg/kg, the “efficacy to suppress T-cell activation (production of IL-2)” value [5] was “higher (or equal) efficacy; also recorded: high efficacy” and the “body weight variation versus time” value [6] was “steadily increased”. The “cell survival rates of T-cells (cytotoxicity)” value [7] was “higher than cynarin; also recorded: lowest cytotoxicity”, the IgE decrease [8] was “about 23%” and the IgG decrease [8] was “about 30%”.
